Experimental data published in US20240002391A1, “4-ALKOXYPYRROLO[2,1-F][1,2,4]TRIAZINES AND PREPARATION AND USES THEREOF” (BioSplice Therapeutics, Inc., priority 2022, published 2024).

Molecular target: recombinant DYRK1A kinase (Homo sapiens (Human), UniProt Q13627)
Assay: DYRK1A kinase assay (Ser/Thr 18 peptide Z-lyte FRET)
Format: biochemical
Conditions: DYRK1A kinase activity, Z-lyte Ser/Thr 18 peptide, 15 μM ATP; method text calls the value IC50; read-out: EC50 (the source's name)
Method: Representative compounds were screened using the assay procedure for DYRK1A kinase activity as described below.
Each compound was dissolved in DMSO as a 10 mM stock and used to prepare compound source plates. Serial dilution (1:3, 11-point dose-response curves from 10 μM to 0.00016 μM) and compound transfer was performed using the ECHO 550 (Labcyte, Sunnyvale, CA) into 1536-well black-walled round bottom plates (Coming).
The DYRK1A kinase assay was run using the Ser/Thr 18 peptide Z-lyte assay kit according to manufacturer's instructions (Life Technologies-a Division of Thermo-Fisher). This is a non-radioactive assay using fluorescence resonance energy transfer (FRET) between coumarin and fluorescein to detect kinase activity which is represented as a ratio of coumarin emission/fluorescein emission.
Briefly, recombinant DYRK1A kinase, ATP and Ser/Thr peptide 18 were prepared in 1X Kinase buffer to final concentrations of 0.25 μg/mL, 15 μM, and 4 μM respectively. The mixture was allowed to incubate with the representative compounds for one hour at room temperature. All reactions were performed in duplicate. Unphosphorylated (“0% Control”) and phosphorylated (“100% control”) forms of Ser/Thr 18 served as control reactions. Additionally, an 11-point dose-response curve of Staurosporine (luM top) was run to serve as a positive compound control.
After incubation, Development Reagent A was diluted in Development Buffer then added to the reaction and allowed to further incubate for one hour at room temperature. The plate was read at Ex 400 Em 455 to detect the coumarin signal and Ex 400 Em 520 to measure the signal (EnVision Multilabel Plate Reader, PerkinElmer).
The Emission ratio (Em) was calculated as a ratio of the coumarin (C) emission signal (at 445 nm)/Fluorescein (F) emission signal (at 520 nm). The percent phosphorylation was then calculated using the following formula: [1−((Em ratio X F100%)-C100%)/((C0%-C100%) +(Em ratio X (F100%−F0%)))]. Dose-response curves were generated, and inhibitory concentration (IC50) values were calculated using non-linear regression curve fit in the Dotmatics' Studies Software (Bishops Stortford, UK).

| SMILES | IC50 |
| --- | --- |
| COc1nc(N[C@H]2C[C@@](C)(NC(C)=O)C2)nn2ccc(-c3ccc4nnn(CC(F)F)c4c3)c12 [Compound 702, N-((1s,3s)-3-((5-(1-(2,2-Difluoroethyl)-1H-benzo[d][1,2,3]triazol-6-yl)-4-methoxypyrrolo[2,1-f][1,2,4]triazin-2-yl)amino)-1-methylcyclobutyl)acetamide] | 1.2 nM |
| COc1nc(N[C@H]2CC[C@@H](OCCO)CC2)nn2ccc(-c3ccc4nccn4c3)c12 [Compound 49, 2-((cis-4-((5-(Imidazo[1,2-a]pyridin-6-yl)-4-methoxypyrrolo[2,1-f][1,2,4]triazin-2-yl)amino)cyclohexyl)oxy)ethan-1-ol] | 2.6 nM |
| COc1nc(N[C@H]2CC[C@@H](NC(C)=O)CC2)nn2ccc(-c3ccc4nnn(CC(F)F)c4c3)c12 [Compound 717, N-(cis-4-((5-(1-(2,2-Difluoroethyl)-1H-benzo[d][1,2,3]triazol-6-yl)-4-methoxypyrrolo[2,1-f][1,2,4]triazin-2-yl)amino)cyclohexyl)acetamide] | 2.3 nM |
| COc1nc(NC2CCN(C(C)=O)CC2)nn2ccc(-c3ccn4nccc4c3)c12 [Compound 27, 1-(4-((4-Methoxy-5-(pyrazolo[1,5-a]pyridin-5-yl)pyrrolo[2,1-f][1,2,4]triazin-2-yl)amino)piperidin-1-yl)ethan-1-one] | 9960 nM |
| COc1nc(N[C@H]2CC[C@@H](OC)CC2)nn2ccc(-c3ccc4nccn4c3)c12 [Compound 45, 5-(Imidazo[1,2-a]pyridin-6-yl)-4-methoxy-N-(cis-4-methoxycyclohexyl)pyrrolo[2,1-f][1,2,4]triazin-2-amine] | 9.3 nM |
| COc1nc(N[C@@H]2CCN(C3COC3)CC2(F)F)nn2ccc(-c3cc(F)c4nccn4c3)c12 [Compound 435, (R)—N-(3,3-Difluoro-1-(oxetan-3-yl)piperidin-4-yl)-5-(8-fluoroimidazo[1,2-a]pyridin-6-yl)-4-methoxypyrrolo[2,1-f][1,2,4]triazin-2-amine] | 8.9 nM |
| COc1nc(N[C@@H]2CCN(C)CC2(F)F)nn2ccc(-c3ccc4nccnc4c3)c12 [Compound 375, (R)—N-(3,3-Difluoro-1-methylpiperidin-4-yl)-4-methoxy-5-(quinoxalin-6-yl)pyrrolo[2,1-f][1,2,4]triazin-2-amine] | 3.3 nM |
| COc1nc(NC23CC(N)(C2)C3)nn2ccc(-c3ccc4nccnc4c3)c12 [Compound 381, N1-(4-Methoxy-5-(quinoxalin-6-yl)pyrrolo[2,1-f][1,2,4]triazin-2-yl)bicyclo[1.1.1]pentane-1,3-diamine] | 2.5 nM |
| COc1nc(N[C@@H]2CN(C(C)=O)C[C@@H]2F)nn2ccc(-c3ccc4nnn(CC(F)F)c4c3)c12 [Compound 734, 1-((3R,4S)-3-((5-(1-(2,2-Difluoroethyl)-1H-benzo[d][1,2,3]triazol-6-yl)-4-methoxypyrrolo[2,1-f][1,2,4]triazin-2-yl)amino)-4-fluoropyrrolidin-1-yl)ethan-1-one] | 0.8 nM |
| CCC(=O)N[C@]1(C)C[C@@H](Nc2nc(OC)c3c(-c4ccc5nnn(C)c5c4)ccn3n2)C1 [Compound 207, N-(trans-3-((4-Methoxy-5-(1-methyl-1H-benzo[d][1,2,3]triazol-6-yl)pyrrolo[2,1-f][1,2,4]triazin-2-yl)amino)-1-methylcyclobutyl)propionamide] | 1.3 nM |
| COc1nc(N[C@H]2C[C@](C)(N)C2)nn2ccc(-c3ccc4nnn(C)c4c3)c12 [Compound 203, trans-N^1-(4-methoxy-5-(1-methyl-1H-benzo[d][1,2,3]triazol-6-yl)pyrrolo[2,1-f][1,2,4]triazin-2-yl)-3-methylcyclobutane-1,3-diamine] | 7.5 nM |
| Cc1nc2ccc(-c3ccn4nc(N[C@H]5CC[C@](C)(O)CC5)nc(OC5COC5)c34)cc2n1CC(F)F [Compound 508, (1r,4r)-4-((5-(1-(2,2-Difluoroethyl)-2-methyl-1H-benzo[d]imidazol-6-yl)-4-(oxetan-3-yloxy)pyrrolo[2,1-f][1,2,4]triazin-2-yl)amino)-1-methylcyclohexan-1-ol] | 24.3 nM |
| COc1nc(N[C@H]2CC[C@@](C)(O)CC2)nn2ccc(-c3ccc4nccn4c3)c12 [Compound 55, cis-4-((5-(Imidazo[1,2-a]pyridin-6-yl)-4-methoxypyrrolo[2,1-f][1,2,4]triazin-2-yl)amino)-1-methylcyclohexan-1-ol] | 6.7 nM |
| [2H]C([2H])([2H])Oc1nc(N[C@H]2C[C@](C)(O)C2)nn2ccc(-c3ccc4nccnc4c3)c12 [Compound 331, trans-3-((4-(Methoxy-d3)-5-(quinoxalin-6-yl)pyrrolo[2,1-f][1,2,4]triazin-2-yl)amino)-1-methylcyclobutan-1-ol] | 1.2 nM |
| COc1nc(N[C@@H]2CCN(C3COC3)CC2(F)F)nn2ccc(-c3ccc4nnn(CCF)c4c3)c12 [Compound 670, (R)—N-(3,3-Difluoro-1-(oxetan-3-yl)piperidin-4-yl)-5-(1-(2-fluoroethyl)-1H-benzo[d][1,2,3]triazol-6-yl)-4-methoxypyrrolo[2,1-f][1,2,4]triazin-2-amine] | 0.8 nM |
| [2H]C([2H])([2H])Oc1nc(N[C@@H]2CN(C(C)=O)C[C@@H]2F)nn2ccc(-c3ccc4nccnc4c3)c12 [Compound 353, 1-((3S,4R)-3-Fluoro-4-((4-(methoxy-d3)-5-(quinoxalin-6-yl)pyrrolo[2,1-f][1,2,4]triazin-2-yl)amino)pyrrolidin-1-yl)ethan-1-one] | 2.2 nM |
| COc1nc(N[C@H]2CCN(C)C[C@H]2F)nn2cc(F)c(-c3ccc4nnn(C)c4c3)c12 [Compound 630, 6-Fluoro-N-((3R,4S)-3-fluoro-1-methylpiperidin-4-yl)-4-methoxy-5-(1-methyl-1H-benzo[d][1,2,3]triazol-6-yl)pyrrolo[2,1-f][1,2,4]triazin-2-amine] | 4.9 nM |
| COc1nc(N[C@H]2CCN(C)C[C@H]2F)nn2cc(F)c(-c3ccc4ncccc4c3)c12 [Compound 1057, 6-Fluoro-N-((3R,4S)-3-fluoro-1-methylpiperidin-4-yl)-4-methoxy-5-(quinolin-6-yl)pyrrolo[2,1-f][1,2,4]triazin-2-amine] | 1.7 nM |
| COc1nc(N[C@@H]2CCN(C)CC2(F)F)nn2ccc(-c3ccc4nc(C)n(CC(F)F)c4c3)c12 [Compound 138, (R)—N-(3,3-Difluoro-1-methylpiperidin-4-yl)-5-(1-(2,2-difluoroethyl)-2-methyl-1H-benzo[d]imidazol-6-yl)-4-methoxypyrrolo[2,1-f][1,2,4]triazin-2-amine] | 4.3 nM |
| CCO[C@H]1C[C@@H](Nc2nc(OC)c3c(-c4ccc5nnn(C)c5c4)ccn3n2)C1 [Compound 624, N-(cis-3-Ethoxycyclobutyl)-4-methoxy-5-(1-methyl-1H-benzo[d][1,2,3]triazol-6-yl)pyrrolo[2,1-f][1,2,4]triazin-2-amine] | 8.6 nM |
| COc1nc(N[C@H]2CC[C@@](C)(O)CC2)nn2ccc(-c3cc(F)c4nnn(CC(F)F)c4c3)c12 [Compound 810, (1s,4s)-4-((5-(1-(2,2-Difluoroethyl)-4-fluoro-1H-benzo[d][1,2,3]triazol-6-yl)-4-methoxypyrrolo[2,1-f][1,2,4]triazin-2-yl)amino)-1-methylcyclohexan-1-ol] | 10.9 nM |
| CNC(=O)c1cnc2ccc(-c3ccn4nc(N[C@H]5CC[C@@H](OC)CC5)nc(OC)c34)cn12 [Compound 439, 6-(4-Methoxy-2-((cis-4-methoxycyclohexyl)amino)pyrrolo[2,1-f][1,2,4]triazin-5-yl)-N-methylimidazo[1,2-a]pyridine-3-carboxamide] | 2.3 nM |
| COc1nc(N[C@H]2CC[C@@H](OC(F)(F)F)CC2)nn2ccc(-c3cnc4nccn4c3)c12 [Compound 252, 5-(Imidazo[1,2-a]pyrimidin-6-yl)-4-methoxy-N-(cis-4-(trifluoromethoxy)cyclohexyl)pyrrolo[2,1-f][1,2,4]triazin-2-amine] | 2.5 nM |
| COc1nc(N[C@@H]2CCCOC2)nn2ccc(-c3ccc4ncccc4c3)c12 [Compound 1050, (R)-4-Methoxy-5-(quinolin-6-yl)-N-(tetrahydro-2H-pyran-3-yl)pyrrolo[2,1-f][1,2,4]triazin-2-amine] | 13.5 nM |
| C[C@]1(O)C[C@H](Nc2nc(OC3COC3)c3c(-c4ccc5nccnc5c4)ccn3n2)C1 [Compound 391, cis-1-Methyl-3-((4-(oxetan-3-yloxy)-5-(quinoxalin-6-yl)pyrrolo[2,1-f][1,2,4]triazin-2-yl)amino)cyclobutan-1-ol] | 7.2 nM |
| COc1nc(N[C@@H]2CCN(C3COC3)CC2(F)F)nn2ccc(-c3ccc4nnn(CC(F)(F)F)c4c3)c12 [Compound 922, (R)—N-(3,3-Difluoro-1-(oxetan-3-yl)piperidin-4-yl)-4-methoxy-5-(1-(2,2,2-trifluoroethyl)-1H-benzo[d][1,2,3]triazol-6-yl)pyrrolo[2,1-f][1,2,4]triazin-2-amine] | 0.9 nM |
